Experimental data published in patent publication US7407939B2, “Protein kinase inhibitors comprising ATP mimetics conjugated to peptides or peptidomimetics” (CureGenics Ltd., priority 2001, dated 2008).
Where two headings read alike, the source gives them in different places. *1 amine or outer side, *2 acyl side, *3 side chain or, on linkers, in order; H or OH if unused. Where a SMILES comes first, the peptide text is derived from it. Where no end group is shown, it is not given here. Side-chain parts run from the residue outwards. [ ]: non-standard residue; d: D form. The star is where a group is joined. Isoquinoline5sulfonyl = O=S(=O)(c1cccc2cnccc12)*; Ethylenediamine = C(CN[*:2])N[*:1]; hLeu = CC(C)CC[C@H](N)C(=O)O; Nle = CCCC[C@H](N)C(=O)O; Dab = NCC[C@H](N)C(=O)O; Nva = CCC[C@H](N)C(=O)O; Abu = CC[C@H](N)C(=O)O; GlyNH2 = aminoglycine; βAla = NCCC(=O)O

Columns and labels:
PKB = molecular target: T1, PKB (Homo sapiens, UniProt P31749); experiment: PKB in vitro kinase activity assay (soluble His-HA-PKB / SPA bead screening); assay type: biochemical; design: % Inhibition PKB I / % Inhibition PKB II: concentration or dose not given beside the values
T1 construct: His; HA; made in house

PKA = molecular target: T2, PKA (Bos taurus, UniProt P00517); experiment: In vitro PKA kinase activity assay (kemptide / SPA beads); assay type: biochemical; design: % Inhibition PKA: concentration or dose not given beside the values;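 further: Cell-free assay of purified PKA catalytic subunit phosphorylating the 7-mer kemptide substrate, run in MOPS buffer with magnesium acetate and BSA, with blank wells lacking enzyme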
T2 construct: purchased Promega

PC-3 cells = experiment: ssDNA apoptosis ELISA (induction of apoptosis in prostate cancer cells); assay type: cell-based; conditions: 50 μM, optical density of treated divided by untreated cells
Experimental: Cells were assayed for Apoptosis using the ssDNA Apoptosis ELISA kit (Chemicon International Inc.). Cells were seeded in 96-well plates (5000 cells/well) and treated with different concentrations of the inhibitors. At different time point, plates were centrifuges at 200 g for 5 min, medium was removed and the cells were fixed with 80% methanol in PBS for 30 min at room temperature. Plates were dried by floating in a waterbath at 37° C. for 20 minutes. 50 μl of Formamide was added to each well and incubate at room temperature for 10 min. Plates were heated to 75° C. in a circulating waterbath for 10 min, cooled in refrigerator for 5 min, and then formamide was removed. Plates were blocked by 3% non-fat dry milk in distilled water (w/v) for 1 hr at 37° C. Blocking was removed and 100 μl of antibody mixture (primary monoclonal antibody to ssDNA and HRP-labelled anti-mouse IgM) was added to each well. Plates were monitored for colour development by ABTS using microplate reader at 405 nm.
DNA in apoptotic cells is sensitive to denaturation by formamide in contrast to necrotic cells. This sensitivity is due to changes in apoptotic cells chromatin. The specific denaturation was detected with monoclonal antibody to single stranded DNA. Using ssDNA Apoptosis ELISA kit (Chemicon International, Inc.) chimeric compounds were analyzed for their potential to induce apoptosis in PC-3 cells compared to TRAIL (TNF-related apoptosis-inducing ligand), a known apoptotic agent (R&D Systems, Inc.). Results are presented in values of apoptotic index which is calculated by dividing the optical density of treated and untreated cells.

[1] = chimeric PTR compounds (peptide conjugated to isoquinoline small molecule), read-out: PKB IC50
[2] = chimeric PTR compounds (peptide conjugated to isoquinoline small molecule), read-out: PKA IC50

T1 sequence (P31749 whole entry, species assumed): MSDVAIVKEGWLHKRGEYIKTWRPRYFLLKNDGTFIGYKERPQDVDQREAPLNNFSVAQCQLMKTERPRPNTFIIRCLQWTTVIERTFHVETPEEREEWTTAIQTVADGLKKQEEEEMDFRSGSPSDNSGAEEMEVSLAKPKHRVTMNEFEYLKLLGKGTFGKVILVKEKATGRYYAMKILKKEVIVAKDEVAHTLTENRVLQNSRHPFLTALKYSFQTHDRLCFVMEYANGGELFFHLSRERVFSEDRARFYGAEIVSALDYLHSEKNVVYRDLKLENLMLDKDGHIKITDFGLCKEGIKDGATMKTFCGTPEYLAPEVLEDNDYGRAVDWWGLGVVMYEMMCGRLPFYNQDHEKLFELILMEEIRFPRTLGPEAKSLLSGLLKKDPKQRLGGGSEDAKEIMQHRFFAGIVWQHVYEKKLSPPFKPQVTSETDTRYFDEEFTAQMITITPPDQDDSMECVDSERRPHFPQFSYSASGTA

| Molecule | IC50 (PKB; [1]) [nM] | IC50 (PKA; [2]) [nM] | Apoptotic index (48 hours) (PC-3 cells) | further results |
| --- | --- | --- | --- | --- |
| Arg-Pro-Arg-Nle-Glu-(5-mercaptoaminopropyl-isoquinoline)-Ser-Phe [PTR 6136] | – | – | 2.4 | – |
| CCCC[C@H](NC(=O)[C@H](CCCNC(=N)N)NC(=O)[C@@H]1CCCN1C(=O)[C@@H](N)CCCNC(=N)N)C(=O)N[C@@H](CCC(=O)NCCC(=O)NCCNS(=O)(=O)c1cccc2cnccc12)C(=O)N[C@@H](CO)C(=O)N[C@@H](Cc1ccccc1)C(N)=O [compound 6086] | 570 | 500 | 2.5 | – |
| CCCC[C@H](NC(=O)[C@H](CCCNC(=N)N)NC(=O)[C@@H]1CCCN1C(=O)[C@@H](N)CCCNC(=N)N)C(=O)N[C@@H](CCC(=O)NCCC(=O)NCCNS(=O)(=O)c1cccc2cnccc12)C(=O)N[C@@H](CC)C(=O)N[C@@H](Cc1ccccc1)C(N)=O [compound 6138] (H-RPR[Nle]E([βAla-Ethylenediamine-Isoquinoline5sulfonyl])[Abu]F-NH2; N-terminus assumed) | 2000 | – | 3.6 | – |
| Arg-Pro-Arg-Thr-Glu-(5-mercaptoaminopropyl-isoquinoline)-Ser-Phe [PTR 6104] | – | – | 2.9 | – |
| Arg-Pro-Arg-Thr-Glu-(bAla-5-mercaptoaminopropyl-isoquinoline)-Ser-Phe [PTR 6102] | – | – | 2.7 | – |
| 60005-32 (RPRT[GlyNH2]A[hLeu]) [Compound 60005-32] | – | – | – | % Inhibition PKB I (PKB; plate screening, peptide moiety alone, PKB I): 43%; % Inhibition PKB II (PKB; plate screening, peptide moiety alone, PKB II): 44%; % Inhibition PKA (PKA; plate screening, peptide moiety alone): 4% |
| Arg-Pro-Arg-Nva-Glu-(5-mercaptoaminopropyl-isoquinoline)-Ser-Phe [PTR 6134] | – | – | 2.2 | – |

Continued, in another order:

| IC50 (PKB; [1]) [nM] | IC50 (PKA; [2]) [nM] | Molecule | Apoptotic index (48 hours) (PC-3 cells) | further results |
| --- | --- | --- | --- | --- |
| 413 | 195 | CCCC[C@H](NC(=O)[C@H](CCCNC(=N)N)NC(=O)[C@@H]1CCCN1C(=O)[C@@H](N)CCCNC(=N)N)C(=O)N[C@@H](CCC(=O)NCCC(=O)NCCNS(=O)(=O)c1cccc2cnccc12)C(=O)N[C@@H](CCN)C(=O)N[C@@H](Cc1ccccc1)C(N)=O [compound 6140] (H-RPR[Nle]E([βAla-Ethylenediamine-Isoquinoline5sulfonyl])[Dab]F-NH2; N-terminus assumed) | 4.0 | – |
| 1000 | 100 | C[C@@H](O)[C@H](NC(=O)[C@H](CCCNC(=N)N)NC(=O)[C@@H]1CCCN1C(=O)[C@@H](N)CCCNC(=N)N)C(=O)N[C@@H](CCC(=O)NCCNS(=O)(=O)c1cccc2cnccc12)C(=O)N[C@@H](CO)C(=O)N[C@@H](Cc1ccccc1)C(N)=O [PTR 6016] (H-RPRTE([Ethylenediamine-Isoquinoline5sulfonyl])SF-NH2; N-terminus assumed) | 3.4 | IC50 (PKB; FIG. 1, synergistic effect of conjugation, read-out: activity (PKB inhibition)): 900 nM; IC50 (PKA; Table 2, chimeric compounds, read-out: Activity PKA): 500 nM |
| 5000 | 5000 | CCC[C@H](NC(=O)[C@H](CCCNC(=N)N)NC(=O)[C@@H]1CCCN1C(=O)[C@@H](N)CCCNC(=N)N)C(=O)N[C@@H](CCC(=O)NCCC(=O)NCCNS(=O)(=O)c1cccc2cnccc12)C(=O)N[C@@H](C)C(=O)N[C@@H](CCC(C)C)C(N)=O [compound 6152] (H-RPR[Nva]E([βAla-Ethylenediamine-Isoquinoline5sulfonyl])A[hLeu]-NH2; N-terminus assumed) | 1.5 | – |
| 5540 | 200 | C[C@@H](O)[C@H](NC(=O)[C@H](CCCNC(=N)N)NC(=O)[C@@H]1CCCN1C(=O)[C@@H](N)CCCNC(=N)N)C(=O)N[C@@H](CCC(=O)NCCC(=O)NCCNS(=O)(=O)c1cccc2cnccc12)C(=O)N[C@@H](CO)C(=O)N[C@@H](Cc1ccccc1)C(N)=O [compound 6082] (H-RPRTE([βAla-Ethylenediamine-Isoquinoline5sulfonyl])SF-NH2; N-terminus assumed) | 2.6 | – |
| 930 | 200 | CCCC[C@H](NC(=O)[C@H](CO)NC(=O)[C@H](CCC(=O)NCCC(=O)NCCNS(=O)(=O)c1cccc2cnccc12)NC(=O)[C@H](CCCC)NC(=O)[C@H](CCCNC(=N)N)NC(=O)[C@@H]1CCCN1C(=O)[C@@H](N)CCCNC(=N)N)C(N)=O [compound 6096] (H-RPR[Nle]E([βAla-Ethylenediamine-Isoquinoline5sulfonyl])S[Nle]-NH2; N-terminus assumed) | 3.2 | – |
